The text below walks through data of patent US11491117B2, “Compounds for the prevention and treatment of glucose intolerance related conditions and obesity” (SORBONNE UNIVERSITÉ, priority 2017, dated 2022).

The assay concerns C57BL/6J mice fed control chow diet (CHD) or high fat diet (HFD). The assay can be described thus: Chronic subcutaneous infusion in mice fed control chow or high fat diet: body growth, glucose homeostasis (IPGTT), insulin secretion, organ weight, liver triglycerides. It counts as in vivo, mouse. Here is the method:
Six weeks-old C57BL/6J male mice (Janvier Labs, Courtaboeuf, France) were received and acclimated in specific pathogen free (SPF) maintenance condition. Mice had free access to a standard chow diet (R04-40, Safe, Augy, France) and were kept on 12 h light/dark cycle. After one week, a group of 12 mice was fed control carbohydrate diet (CHD) (D 12450Ki, Research diets, NJ) and a group of 12 mice was fed high fat (60% fat and sucrose) diet (HFD) (D12492i, Research diets, NJ).
After three weeks of metabolite treatment (i.e. four weeks of HFD feeding) an intra-peritoneal glucose tolerance test (IPGTT) (2 g/kg) was performed in conscious mice following an overnight fast. Blood was collected from the tail vein before glucose injection and 15, 30, 60 and 120 minutes afterwards. Additional blood samples were collected during the IPGTT in GK rats 15, 90, 180 and 240 minutes after glucose injection. Blood glucose levels were determined using an Accu-Check® Performa (Roche Diagnostics, Meylan, France). Additional blood samples were collected at base line and 30 minutes after glucose injection in Microvette® CB 300 Lithium Heparin (Sarstedt, Marnay, France). Plasma was separated by centrifugation and stored at −80° C. until insulin radioimmunoassay. Evaluation of overall glucose tolerance was obtained from cumulative glycemia (GCum) and the ΔG, which were determined by the total increment of plasma glucose values during the IPGTT (GCum) and the cumulative glycemia during the test above baseline (ΔG). After six weeks of metabolite treatment, mice were killed by decapitation and organ were dissected and weighed. Half of liver, fat and pancreas samples were snap frozen in liquid nitrogen and stored at −80° C. for molecular studies, and the second half processed for histopathology. All procedures were authorized following review by the institutional ethic committee and carried out under national license condition (Ref 00486.02).
Blood glucose was measured using an Accu-Check® Performa (Roche Diagnostics, Meylan, France) and plasma insulin was determined using Insulin ELISA kits (Mercodia, Uppsala, Sweden). For determination of liver triglycerides, liver samples (100 mg) were homogenized and incubated in NonidetP-40 (5%) and supernatants containing triglycerides were collected. Triglycerides concentration was quantified in the supernatant fraction using a colorimetric assay (ab65336, Abcam, Paris, France) by measuring OD at 570 nm. The ratio NAD/NADH was determined using a quantification kit (MAK037; SigmaAldrich, St Quentin, France) on extracts prepared from 20 mg pancreas tissue. Samples were homogenized in the extraction buffer and clarified by centrifugation. Supernatant was deproteinized by filtration through a 10-kDa cutoff spin filter (Millipore SAS, Molsheim, France). The assay was then performed according to the manufacturer's instructions.
As expected, mice fed HFD rapidly gained more weight than mice fed control diet and developed fasting hyperglycemia and marked glucose intolerance (FIG. 1A-1F).

On to `Cc1ccc(O)c(O)c1` [4-MC, 4-methylcatechol], for which the “adiposity index (retroperitoneal fat pads to body weight)” value (both diet groups (CHD, HFD), 6 weeks, vs saline) is “significant reduction”. In addition, the liver triglycerides content result (both diet groups, vs saline) is reported as “significant reduction”. For the same molecule, for the setting “both diets, IPGTT, vs saline”, the cumulative glycemia entry is given as “reduced”, the glucose tolerance result is “improved glucose tolerance” and the ΔG result is listed as “reduced”. Further, for the setting “both diets, vs saline”, the fasting glycemia result was “reduced” and the insulin secretion result was “increased insulin secretion”. Besides, under “mice fed HFD or control diet”, the liver weight entry is reported as “significant reduction” and the pancreas weight result was “increased pancreas weight”. In addition, the body growth result (mice fed chow diet or HFD, chronic treatment, vs saline) was “strong reduction”. Further, the BMI result (mice fed chow diet or HFD, vs saline) is on record as “strong reduction”.
